Experimental data from article PMC6628435, “Chemical Synthesis, Proper Folding, Nav Channel Selectivity Profile and Analgesic Properties of the Spider Peptide Phlotoxin 1” (Toxins, 2019).
Bridge positions count the residues as written; N and C are the ends. Peptide text beside a SMILES is read from it.

Legend:
Nav1.1/β1 = test: Two-electrode voltage-clamp on Xenopus laevis oocytes expressing Nav1.1/β1; type: cell-based; conditions: 1 µM; voltage of maximum sodium influx, holding −90 mV; oocytes TEVC; n ≥ 3
Source text: (§1) Using the two-electrode voltage-clamp technique on Xenopus laevis oocytes, the effect of PhlTx1 was also compared on eight different cloned vertebrate Nav channels co-expressed with the β1 subunit (Nav1.1-1.8/β1) and on the neuronal insect Nav channel, para, co-expressed with the tipE subunit (Figure 3 and Figure 4). […] Normalized current-voltage relationships (I-V curve) of Nav1.2/β1 and Nav1.3/β1 channels seemed to be shifted towards more negative potentials when PhlTx1 was applied, but shifts were not statistically significant […] (Figure 4). The activation phase of the other studied Nav channel subtypes was not affected. No obvious alteration in channel availability was observed, except a 5-mV negative shift for Nav1.3/β1, although that was also non-significant (p > 0.05).
(§2) Figure 4 1 µM of PhlTx1 was tested on Nav1.1/β1, Nav1.2/β1, Nav1.3/β1, Nav1.4/β1, Nav1.5/β1, Nav1.6/β1, Nav1.8/β1 and para/tipE (n ≥ 3). Left column: current traces were evoked by a 50-ms depolarization to the voltage of maximum sodium influx, depending on the Nav studied, from a holding potential of −90 mV. At 1 µM PhlTx1, all studied Nav channels, except Nav1.4/β1, were blocked for about 10% (no toxin: *). The current of Nav1.4/β1 was reduced for about 35 ± 5%. Middle column: normalized I-V curves reveal no significant shift of the activation voltage (p > 0.05). […]

Nav1.5/β1 = test: Two-electrode voltage-clamp on Xenopus laevis oocytes expressing Nav1.5/β1; type: cell-based; conditions: 1 µM; voltage of maximum sodium influx, holding −90 mV; oocytes TEVC; n ≥ 3
Source text: as §1, §2

CC(C)C[C@@H]1NC(=O)[C@@H](NC(=O)[C@H](C)N)CSSC[C@@H]2NC(=O)[C@@H]3CSSC[C@@H](C(=O)N[C@@H](CCCNC(=N)N)C(=O)N[C@@H](Cc4ccc(O)cc4)C(=O)N[C@@H](CCCCN)C(=O)N[C@@H](CC(C)C)C(=O)N[C@@H](Cc4ccccc4)C(=O)O)NC(=O)[C@H](Cc4c[nH]c5ccccc45)NC(=O)[C@@H]4CCCN4C(=O)[C@H](Cc4ccc(O)cc4)NC(=O)[C@H](CCCCN)NC(=O)[C@H](Cc4c[nH]c5ccccc45)NC(=O)[C@H](CCC(=O)O)NC(=O)[C@H](CSSC[C@H](NC(=O)[C@H](CO)NC(=O)[C@H](CC(=O)O)NC(=O)[C@H](Cc4c[nH]c5ccccc45)NC(=O)[C@H](CCC(N)=O)NC(=O)CNC1=O)C(=O)N[C@@H](CC(=O)O)C(=O)N1CCC[C@H]1C(=O)N[C@@H](CCCCN)C(=O)N[C@@H](C)C(=O)N[C@@H](CO)C(=O)N[C@@H](CCCCN)C(=O)N3)NC(=O)[C@H](C)NC(=O)[C@H](Cc1ccc(O)cc1)NC(=O)[C@H](CC(N)=O)NC(=O)[C@@H]1CCCN1C2=O [PhlTx1, Phlotoxin-1] (H-ACLGQWDSCDPKASKCCPNYACEWKYPWCRYKLF-OH; disulfide 2-17, 9-22, 16-29; N-terminus and C-terminus assumed)
block of sodium current (Nav1.1/β1): about 10%
block of sodium current (Nav1.5/β1): about 10%
